Key:
[1] = test system: fall armyworm (Spodoptera frugiperda) larvae; experiment: Initial screen: lyophilized yeast cultures expressing lycotoxin-1 / NNR mutants mixed with insect diet, armyworm larvae assay; conditions: lyophilized yeast culture in pYES2-DEST52/INVSc1 mixed with rehydrated insect diet, oral, 20 newly hatched larvae
[2] = test system: fall armyworm (Spodoptera frugiperda) larvae; experiment: Lethality of single INVSc1-XI-Lyt-1 yeast strain isolates expressing Lyt-1 toxin variants on xylose plates to fall armyworm larvae; type: in vivo; conditions: for relative mortality compared with mutants C3 and A6 (frequency analysis) / mortality compared pairwise (C6 vs B9; A6 vs C3), frequency analysis: SAS Proc Freq, data adjusted for colony size, P<0.05; for relative mortality compared with mutants C3 and A6 (frequency analysis): 20-insect sample; for state of armyworms on plates containing cultures expressing variants: compared with INVSc1-XI control plate; for Day 1 (% killed) / Day 2 (% killed): single isolates grown 3 days on CM xylose URA/TRP plates, 4 plates averaged, 20 larvae/plate, adjusted for colony size
Description: Samples of the transformation reactions from each of the multiplex wells were recovered on 86×128 mm rectangular CM glucose URA/TRP-selective plates for 2 days at 30° C. and diluted 10.000-fold in sterile water; then 200 μl was spotted onto the respective CM xylose URA/TRP-selective plates and allowed to grow for 3 days to generate a yeast growth area (spot) expressing toxins. The size of the spot was recorded and used to normalize the percent killed, since the percent is a function of the amount of yeast encountered. Twenty newly hatched armyworm larvae were added to the growth spot on the plate, the plate was covered with a lid having five small 0.4 mm openings in the center protected with cotton organdy cloth, and the lid was sealed to the plate with Microseal ‘A’ film (MJ Research, Waltham, Mass.) cut so that a gasket 5-mm wide could seal the edges. The plates were scored for the number of dead armyworms daily after adding the larvae until the assay was ended. Results from days 1 and 2 were of the greatest importance for a commercially viable insecticide. The multiplexed wells having the mutants showing greatest lethality (positions 8, 9, and 10) were selected and the multiplexed wells containing the lycotoxin-1 inserts in pENTR D TOPO corresponding to those positions were transformed into TOP 10 cells, single colonies picked from spread plates, and a plasmid preparation performed. The sequences of 90 AASM variant single isolates picked from the three most lethal multiplexed wells were determined. Forty-five of these had inserts with complete sequences in the correct orientation. Nine were C3, while 36 of them were unique variants and these were selected for the second lethality assay. They were moved into pSUMOduo/TRP via LR clonase, retransformed into INVSc1-XI yeast, and recovered on CM glucose URA/TRP-selective plates. Single colonies with sequence-verified inserts were picked into CM glucose URA/TRP-selective liquid medium, grown, and diluted 10,000-fold. A 100 μl sample was spotted onto CM xylose URA/TRP-selective plates and analyzed for lethality, along with samples containing C3, in quadruplicate, with 20 newly hatched armyworm larvae added to each plate. The variants were scored for dead armyworms and the percent killed was calculated.
Single colonies were picked from the multiplexed wells for the mutation positions showing greatest lethality. Growing yeast spots containing the individual variants were tested for lethality to fall armyworm larvae. Percent dead on day 2 for C3, B9, A6, and C6 were 71, 97, 74, and 100%, respectively (Table 2). The two AASM mutants B9 and C6 were more lethal than the NNR mutant C3. The numbers are normalized for diameter of the colony on the xylose plates. […] Frequency analysis was performed using SAS Proc Freq (SAS Institute 1999) with data adjusted for colony size and assuming a conservative 20-insect sample for each treatment.

[3] = test system: INVSc1-XI-Lyt-1 yeast cells; experiment: Scanning electron microscopy of yeast strains expressing variants; type: cell-based, Saccharomyces cerevisiae; conditions: INVSc1-XI-Lyt-1 yeast strain expressing the variant
Description: Yeast cells from the plate were suspended in saline (0.85% NaCl) and centrifuged to remove the residual medium. Following a modified procedure of Bang and Pazirandeh [Bang and Pazirandeh. Physical properties and heavy metal uptake of encapsulated Escherichia coli expressing a metal binding gene (NCP). J. Microencapsul. 1999; 16(4): 489-499], the cell pellet was suspended and fixed in 2.5% glutaraldehyde prepared in 100 mM cacodylate buffer, pH 7.2, for 1 h on ice. To remove remaining glutaraldehyde, the cells were rinsed with the buffer twice and then with distilled water once, allowing several minutes for each step. The cells were dehydrated in solutions containing 50, 70, 80 and 100% ethanol successively for 15 min for each treatment. Cells were mounted on the aluminum stub and placed in the desiccator to dry overnight or until needed. The samples were subjected to scanning electron microscopy and analysis (Zeiss Supra 40 VP).

[4] = test system: transformed host cell; experiment: Expression of variant peptide in transformed host cell (membrane crossing, intracellular membranes); type: cell-based; conditions: expression in a transformed host cell

Sequence | lethality to armyworms in initial screening [1] | relative mortality compared with mutants C3 and A6 (frequency analysis) [2] | state of armyworms on plates containing cultures expressing variants [2] | Day 1 (% killed) [2] | Day 2 (% killed) [2] | Day 2 (% killed) ([2]; listed as XI Lyt-1 B9) | cell surface morphology in scanning electron micrographs [3] | mortality compared pairwise (C6 vs B9; A6 vs C3), frequency analysis [2] | Day 2 (% killed) ([2]; listed as XI Lyt-1 C6) | build-up of intracellular membranes (tubules) on expression [4] | Day 2 (% killed) ([2]; listed as XI Lyt-1 A6)
IWLTALKFLGKHAAKHLAKQQLSKL [wild-type lycotoxin-1] | not found to be lethal | – | – | – | – | – | – | – | – | – | –
IWLTALKFLQKHAAKHLAKHSLSPW (Completely synthesized from synthetic oligonucleotides) [B9, lycotoxin-1 variant with mutations G10Q, Q20H, Q21S, K24P, L25W] | – | significantly greater than mortality caused by mutants C3 and A6 | much smaller and mostly or all dead | 0.0% | 97% | 97.2% | numerous bulges and irregularities on the surface | – | – | – | –
IWLTALKFSGKHAAKHLAKQQLSPW (Completely synthesized from synthetic oligonucleotides) [C6, lycotoxin-1 variant with mutations L9S, K24P, L25W] | – | significantly greater than mortality caused by mutants C3 and A6 | much smaller and mostly or all dead | 3.7% | 100% | – | numerous bulges and irregularities on the surface | not significantly different | 100.0% | significant build-up of intracellular membranes | –
IWLTALKHLGKHAAKHLAKQQLSPW (Completely synthesized from synthetic oligonucleotides) [A6, lycotoxin-1 variant with mutations F8H, K24P, L25W] | – | – | much smaller and mostly or all dead | 13.2% | 74% | – | numerous bulges and irregularities on the surface | not significantly different | – | – | 74.1%

Reference: patent US8334366B1, “Mutant lycotoxin-1 peptide sequences for insecticidal and cell membrane altering properties” (The United States of America, as represented by the …, priority 2009, dated 2012)
